From patent US20230089368A1, “POLYAROMATIC UREA DERIVATIVES AND THEIR USE IN THE TREATMENT OF MUSCLE DISEASES” (ANAGENESIS BIOTECHNOLOGIES S.A.S., priority 2019, published 2023) come the findings set out here.

Molecules are shown by their SMILES.

For experiment [1], the system named is muscle progenitors (hMP) from DMD hiPSC or WT hiPSC. The experiment can be described thus: Myotube assay: myogenic activity (total myotube area per well). The note with it: Homo sapiens, 72 h, myotube assay, compounds incubated 3 days; for Emax: read-out: MA (normalized Myotube Area, efficacy). The class given is cell-based, human. In a few lines:
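DMD or WT hiPSC-derived muscle progenitors plated on collagen I in K5 medium with 5 μM Y-27632, treated with compound (1.5 nM–30 μM) for 3 days at 37° C. Cells were fixed, stained for alpha-actinin and imaged for total myotube area per well. EC50 and normalized myotube area (MA) taken from duplicate-averaged data.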

Experiment [2] deals with satellite-like cells (Pax7-positive cells) in hMP. The experiment can be described thus: Myotube assay: Pax7-positive (satellite-like) cell quantification. It counts as cell-based, human. On the set-up: key to Pax7% (pool of Pax7-positive cells) / Pax7: −: Depletes the pool of cells, while positively affects the myotubes; +: Maintains or increases the pool of cells, with at least 1 of the highest concentration known to be cytotoxic; ++: Maintains or increases the pool of cells, without any toxicity. The note with it: myotube assay, compounds incubated 3 days. In a few lines: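 DMD hiPSC-derived muscle progenitors (hMP) proliferated 4 days, then plated on collagen I in K5 medium with 5 μM Y-27632. Compound added at 1.5 nM–30 μM for 3 days at 37° C, then cells fixed and immunostained. Pax7-positive cells counted as percentage of total nuclei, duplicates averaged.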

Regarding `CSc1cc(Oc2ccnc3[nH]c(=O)cnc23)ccc1NC(=O)Nc1cc(C(C)(C)C)nn1-c1ccc(OCCN2CCOCC2)cc1` [(cf), 1-(3-(tert-butyl)-1-(4-(2-morpholinoethoxy)phenyl)-1H-pyrazol-5-yl)-3-(2-(methylthio)-4-((3-oxo-3,4-dihydropyrido[2,3-b]pyrazin-8-yl)oxy)phenyl)urea], the Emax in experiment [1] is at least 75%. Besides, the “Pax7% (pool of Pax7-positive cells)” value in experiment [2] is “−”.

Take `CC1(c2cc(NC(=O)Nc3ccc(Oc4ccnc5[nH]c(=O)cnc45)cc3F)n(-c3ccccc3)n2)COC1` [(f), 1-(2-fluoro-4-((3-oxo-3,4-dihydropyrido[2,3-b]pyrazin-8-yl)oxy)phenyl)-3-(3-(3-methyloxetan-3-yl)-1-phenyl-1H-pyrazol-5-yl)urea]: the Emax in experiment [1] fell in the range of 50 to 75%. The “Pax7% (pool of Pax7-positive cells)” value in experiment [2] is recorded as “++”.

For `O=C(Nc1ccc(Oc2ccnc3[nH]c(=O)cnc23)cc1F)Nc1cc(C2(C(F)(F)F)CC2)nn1-c1ccccc1` [(d), 1-(2-fluoro-4-((3-oxo-3,4-dihydropyrido[2,3-b]pyrazin-8-yl)oxy)phenyl)-3-(1-phenyl-3-(1-(trifluoromethyl)cyclopropyl)-1H-pyrazol-5-yl)urea], the Emax in experiment [1] was in the range of 50 to 75%. Besides, the “Pax7% (pool of Pax7-positive cells)” value in experiment [2] was “+”.

Take `CNC(=O)c1cc(Oc2ccc(NC(=O)Nc3cc(C(C)(C)C)nn3-c3ccccc3)c(SC)c2)ccn1` [(br), 4-(4-(3-(3-(tert-butyl)-1-phenyl-1H-pyrazol-5-yl)ureido)-3-(methylthio)phenoxy)-N-methylpicolinamide]: the Emax in experiment [1] was at least 75%. In addition, the “Pax7% (pool of Pax7-positive cells)” value in experiment [2] is given as “++”.

Turning to `CC(=O)Nc1cc(Oc2ccc(NC(=O)Nc3cc(C(C)(C)C)nn3-c3ccccc3)c3ccccc23)ccn1` [(dj), N-(4-((4-(3-(3-(tert-butyl)-1-phenyl-1H-pyrazol-5-yl)ureido)naphthalen-1-yl)oxy)pyridin-2-yl)acetamide], the Emax in experiment [1] is at least 75%. Also, the “Pax7% (pool of Pax7-positive cells)” value in experiment [2] was “+”.

For `CSc1cc(Oc2ccnc3[nH]c(=O)cnc23)ccc1NC(=O)Nc1cc(C(C)(C)C)nn1-c1ccc(CN(C)C)cc1` [(dp), 1-(3-(tert-butyl)-1-(4-((dimethylamino)methyl)phenyl)-1H-pyrazol-5-yl)-3-(2-(methylthio)-4-((3-oxo-3,4-dihydropyrido[2,3-b]pyrazin-8-yl)oxy)phenyl)urea], the Emax in experiment [1] is at least 75%. Also, the “Pax7% (pool of Pax7-positive cells)” value in experiment [2] was “+”.

Take `CC(=O)n1nc(C(C)(C)C)cc1NC(=O)Nc1ccc(Oc2ccnc3[nH]c(=O)cnc23)cc1F` [(o), 1-(1-acetyl-3-(tert-butyl)-1H-pyrazol-5-yl)-3-(2-fluoro-4-((3-oxo-3,4-dihydropyrido[2,3-b]pyrazin-8-yl)oxy)phenyl)urea]: the Emax in experiment [1] lay within 25 to 50%. Further, the “Pax7% (pool of Pax7-positive cells)” value in experiment [2] is on record as “++”.

On to `CSc1cc(Oc2ccnc3[nH]c(=O)cnc23)ccc1NC(=O)Nc1cc(C(C)(C)C)nn1-c1ccc(F)c(Cl)c1` [(cm), 1-(3-(tert-butyl)-1-(3-chloro-4-fluorophenyl)-1H-pyrazol-5-yl)-3-(2-(methylthio)-4-((3-oxo-3,4-dihydropyrido[2,3-b]pyrazin-8-yl)oxy)phenyl)urea], for which the Emax in experiment [1] is at least 75%. In addition, in experiment [2], the “Pax7% (pool of Pax7-positive cells)” value is recorded as “+”.

On to `CCC(C)c1cc(NC(=O)Nc2ccc(Oc3ccnc4[nH]c(=O)cnc34)cc2F)n(-c2ccccc2)n1` (stereo not drawn) [(c), 1-(3-(sec-butyl)-1-phenyl-1H-pyrazol-5-yl)-3-(2-fluoro-4-((3-oxo-3,4-dihydropyrido[2,3-b]pyrazin-8-yl)oxy)phenyl)urea], for which the Emax in experiment [1] lay in the range of 50 to 75%. Also, in experiment [2], the “Pax7% (pool of Pax7-positive cells)” value is given as “+”.

As for `CSc1cc(Oc2cccc3[nH]c(=O)cnc23)ccc1NC(=O)Nc1cc(C(C)(C)C)nn1-c1ccccc1` [(bu), 1-(3-(tert-butyl)-1-phenyl-1H-pyrazol-5-yl)-3-(2-(methylthio)-4-((2-oxo-1,2-dihydroquinoxalin-5-yl)oxy)phenyl)urea], in experiment [1], the Emax was in the range of 25 to 50%. In addition, the “Pax7% (pool of Pax7-positive cells)” value in experiment [2] is given as “++”.

Turning to `CSc1cc(Oc2ccnc(NC(C)=O)c2)ccc1NC(=O)Nc1cc(C(C)(C)C)nn1-c1ccccc1` [(aq), N-(4-(4-(3-(3-(tert-butyl)-1-phenyl-1H-pyrazol-5-yl)ureido)-3-(methylthio)phenoxy)pyridin-2-yl)acetamide], the Emax in experiment [1] was at least 75%. Moreover, the “Pax7% (pool of Pax7-positive cells)” value in experiment [2] is listed as “+”.

`CCSc1cc(Oc2ccnc3[nH]c(=O)cnc23)ccc1NC(=O)Nc1cc(C(C)(C)C)nn1-c1ccccc1` [(am), 1-(3-(tert-butyl)-1-phenyl-1H-pyrazol-5-yl)-3-(2-(ethylthio)-4-((3-oxo-3,4-dihydropyrido[2,3-b]pyrazin-8-yl)oxy)phenyl)urea]: the Emax in experiment [1] was at least 75%. Further, the “Pax7% (pool of Pax7-positive cells)” value in experiment [2] is “++”.

In the case of `CC(C)(C)c1cc(NC(=O)Nc2ccc(Oc3ccccc3)cc2F)n(-c2ccccc2)n1` [(ac), 1-(3-(tert-butyl)-1-phenyl-1H-pyrazol-5-yl)-3-(2-fluoro-4-phenoxyphenyl)urea], the Emax in experiment [1] lay in the range of 50 to 75%. The “Pax7% (pool of Pax7-positive cells)” value in experiment [2] is “++”.

Consider `CC(C)(C)c1cc(NC(=O)Nc2ccc(Oc3ccnc4[nH]c(=O)cnc34)cc2C(F)(F)F)n(-c2ccccc2)n1` [(v), 1-(3-(tert-butyl)-1-phenyl-1H-pyrazol-5-yl)-3-(4-((3-oxo-3,4-dihydropyrido[2,3-b]pyrazin-8-yl)oxy)-2-(trifluoromethyl)phenyl)urea], for which the Emax in experiment [1] was at least 75%. For the same compound, the “Pax7% (pool of Pax7-positive cells)” value in experiment [2] is “++”.

On to `O=C(Nc1ccc(Oc2ccnc3[nH]c(=O)cnc23)cc1F)Nc1c2c(nn1-c1ccccc1)CCC2` [(x), 1-(2-fluoro-4-((3-oxo-3,4-dihydropyrido[2,3-b]pyrazin-8-yl)oxy)phenyl)-3-(2-phenyl-2,4,5,6-tetrahydrocyclopenta[c]pyrazol-3-yl)urea], for which the Emax in experiment [1] fell in the range of 25 to 50%. Further, in experiment [2], the “Pax7% (pool of Pax7-positive cells)” value is reported as “++”.

For the compound `CSc1cc(Oc2ccnc3[nH]c(=O)cnc23)ccc1NC(=O)Nc1nnc(C(C)(C)C)s1` [(z), 1-(5-(tert-butyl)-1,3,4-thiadiazol-2-yl)-3-(2-(methylthio)-4-((3-oxo-3,4-dihydropyrido[2,3-b]pyrazin-8-yl)oxy)phenyl)urea], in experiment [1], the Emax is at least 75%. The “Pax7% (pool of Pax7-positive cells)” value in experiment [2] is recorded as “++”.

Consider `CSc1cc(Oc2ccnc3[nH]c(=O)cnc23)ccc1NC(=O)Nc1nnc(-c2ccccc2)s1` [(ay), 1-(2-(methylthio)-4-((3-oxo-3,4-dihydropyrido[2,3-b]pyrazin-8-yl)oxy)phenyl)-3-(5-phenyl-1,3,4-thiadiazol-2-yl)urea], for which, in experiment [1] (10 points dose-response 1.5 nM to 30 μM, read-out: EC50 (myogenic activity, half-maximal generation of myotubes)), the EC50 lay within 1 to 5 µM. Besides, the Emax in experiment [1] was at least 75%. Moreover, in experiment [2], the “Pax7% (pool of Pax7-positive cells)” value is “++”.

In the case of `CCOC(=O)Nc1cc(Oc2ccc(NC(=O)Nc3ncc(C(C)(C)C)s3)c3ccccc23)ccn1` [(dc), Ethyl (4-((4-(3-(5-(tert-butyl)thiazol-2-yl)ureido)naphthalen-1-yl)oxy)pyridin-2-yl)carbamate], the Emax in experiment [1] is at least 75%. For the same compound, the “Pax7% (pool of Pax7-positive cells)” value in experiment [2] is listed as “+”.

As to `CSc1cc(Oc2ccnc3[nH]c(=O)cnc23)ccc1NC(=O)Nc1cc(C(C)(C)C)nn1CCCN1CCOCC1` [(bh), 1-(3-(tert-butyl)-1-(3-morpholinopropyl)-1H-pyrazol-5-yl)-3-(2-(methylthio)-4-((3-oxo-3,4-dihydropyrido[2,3-b]pyrazin-8-yl)oxy)phenyl)urea], the Emax in experiment [1] was at least 75%. Moreover, in experiment [2], the “Pax7% (pool of Pax7-positive cells)” value is recorded as “++”.
